The nature of data set [1]: Cytotoxicity (MTT) assay against HFF-1 cells. The data set is classed as cell-based. Conditions: human, no irradiation, read-out: 50% cytotoxicity concentration (CC50) against HFF-1 cells. The method, then:
The cytotoxicity of TPA-1, TPA-0, and TPA-NC-1 against HFF-1 cells was evaluated using the 3-(4,5-dimethylthiazol-2-yl)-2,5-diphenyltetrazolium bromide (MTT) assay kit from ThermoFisher Scientific. In general, HFF-1 cells (MEM, 10% FBS, and 1% penicillin-streptomycin) were seeded in a 96-well plate with a density of 3000 cells/well overnight at 37 °C with 5% CO2. Then, the cells were treated with different concentrations of compounds for 24 h. MTT (10 μL, 5 mg/mL) was added to the medium, and the cells were further incubated for 3 h. The medium was then replaced by DMSO (100 μL). After gently shaking the plate for 30 s, the optical density of the solutions at 570 nm was measured by a BMG Labtech CLARIOstar microplate reader. The cell viability was calculated as (ODcompound – ODDMSO)/(ODmedium - ODDMSO) × 100% where ODcompound, ODmedium, and ODDMSO are the optical densities of the treated cell, nontreated cells, and DMSO at 570 nm, respectively. The experiment was conducted in triplicate. The CC50 values were calculated using GraphPad Prism 8.

The next data set concerns planktonic P. aeruginosa. Kind of data set: Photodynamic eradication of planktonic bacteria. Conditions: 2 μM, 600 nm (60 mW/cm^2). The data set is classed as cell-based, Pseudomonas aeruginosa. The protocol: (§1) For planktonic bacteria, an overnight culture of S. aureus or P. aeruginosa was diluted 100 times in TSB and grown to OD = 1. The bacteria cultures were then diluted to […] in PBS. TPA-1 (2 μM) was added to the diluted cultures and incubated under darkness for 20 min at 30 °C. Bacterial cultures of 200 μL were transferred to the wells of a 96-well plate. The plate was irradiated by 600 nm light (60 mW/cm^2) for 30 and 45 min. Then, the bacterial cultures were serially diluted, and the number of viable bacteria was counted using the plate counting method.

The next data set has as its system S. aureus biofilm. The experiment in a line: Photodynamic eradication of biofilm bacteria. It counts as cell-based, Staphylococcus aureus. Conditions: light irradiation at 600 nm for 45 min. The protocol:
(§2) For biofilm bacteria, overnight culture of S. aureus or P. aeruginosa was diluted to 1 × 10^5 CFU/mL in TSB (with 1% glucose). Portion of 100 μL of the diluted bacteria culture was added to the wells of a 96-well plate. The plate was incubated under darkness for 24 h at 37 °C. Then, the planktonic bacterial suspensions were removed from the wells. The biofilms were washed with PBS (3 times) to remove any remaining planktonic bacteria. Different concentrations of TPA-1 were dissolved in PBS. TPA-1 solution was added to the biofilms (120 μL for S.aureus, 150 μL for P.aeruginosa). After 20 min of incubation under darkness at 30 °C, the biofilms were kept in the dark or irradiated by 600 nm light (60 mW/cm^2) for 15, 30, and 45 min. After that, the TPA-1 solution was replaced by 120 μL of PBS. The biofilm was then suspended in PBS by scratching, followed by sonication (5 min, ≤42 kHz) and vortex (5 min, 950 rpm). The number of viable bacteria was determined by the plate counting method. All experiments were carried out in triplicate.

Data set [2] relates to S. aureus biofilm formation. The experiment in a line: S. aureus biofilm inhibition assay in the dark (crystal violet). It counts as cell-based. The note with it: Staphylococcus aureus, light or radiation study, without light irradiation. The protocol: For biofilm inhibition assay, overnight culture of S. aureus in TSB was diluted to 1 × 10^7 CFU/mL in TSB (with 1% glucose). Ten μL of the diluted bacteria were added to a 96-well plate containing 90 μL of serial diluted TPA-1 in TSB (with 1% glucose). After overnight incubation at 37 °C in darkness, the medium in the well was removed. The remaining biofilm was washed with 200 μL of PBS (3 times) and fixed with 100 μL of methanol for 10 min. The well was left for drying. Then, 150 μL of 0.1% crystal violet was added to the wells and stained for 10 min. The crystal violet was removed, and the wells were washed with 200 μL of PBS (3 times). After drying, the remaining crystal violet was dissolved in 100 μL of 95% ethanol with gentle shaking, and the absorbance at 570 nm was recorded. The biofilm inhibition % was calculated as [1 – (ODTPA-1 – ODblank)/(ODmedium – ODblank)] × 100% where ODTPA-1, ODmedium and ODblank were the absorbances of the wells with bacteria treated TPA-1, with bacteria without treatment and with medium only, respectively. The experiment was performed in triplicate.

The next data set has as its target T1, S. aureus DNA gyrase (Staphylococcus aureus, UniProt P0A0K8+P20831).
T1 construct: purchased Inspiralis
Kind of data set: S. aureus DNA gyrase supercoiling inhibition assay. The data set is classed as biochemical. Conditions: relaxed pBR322, 37 °C, 30 min, agarose gel. The method, then:
The assay was conducted using an S. aureus gyrase supercoiling assay kit from Inspiralis. In general, relaxed bacterial plasmid (pBR322), S. aureus gyrase, and different concentrations of TPA-1 were mixed and incubated at 37 °C for 30 min. The mixtures were then quenched and subjected to electrophoresis (1% agarose gel, 75 V, 2 h). The gel image was captured with the Bio-Rad ChemiDoc imaging system.

The next data set concerns planktonic S. aureus. Kind of data set: Photodynamic eradication of planktonic bacteria. The data set is classed as cell-based, Staphylococcus aureus. The note with it: 2 μM, 600 nm (60 mW/cm^2). The method, then:
as §1

In another data set the test system is P. aeruginosa biofilm. The experiment in a line: Photodynamic eradication of biofilm bacteria. It counts as cell-based, Pseudomonas aeruginosa. The note with it: light irradiation at 600 nm for 45 min. The method, then: as §2

The structures appear in SMILES notation.

From paper PMC12035805, “A Water-Soluble Aggregation-Induced Emission Photosensitizer with Intrinsic Antibacterial Activity as an Antiplanktonic and Antibiofilm Therapeutic Agent” (Journal of Medicinal Chemistry, 2025) come the findings set out here.

As a reminder, the inhibition is the change of the read-out against control, counted positive when it falls. Low values mean a weak effect, high ones a strong effect.

T1 sequence (P20831 whole entry): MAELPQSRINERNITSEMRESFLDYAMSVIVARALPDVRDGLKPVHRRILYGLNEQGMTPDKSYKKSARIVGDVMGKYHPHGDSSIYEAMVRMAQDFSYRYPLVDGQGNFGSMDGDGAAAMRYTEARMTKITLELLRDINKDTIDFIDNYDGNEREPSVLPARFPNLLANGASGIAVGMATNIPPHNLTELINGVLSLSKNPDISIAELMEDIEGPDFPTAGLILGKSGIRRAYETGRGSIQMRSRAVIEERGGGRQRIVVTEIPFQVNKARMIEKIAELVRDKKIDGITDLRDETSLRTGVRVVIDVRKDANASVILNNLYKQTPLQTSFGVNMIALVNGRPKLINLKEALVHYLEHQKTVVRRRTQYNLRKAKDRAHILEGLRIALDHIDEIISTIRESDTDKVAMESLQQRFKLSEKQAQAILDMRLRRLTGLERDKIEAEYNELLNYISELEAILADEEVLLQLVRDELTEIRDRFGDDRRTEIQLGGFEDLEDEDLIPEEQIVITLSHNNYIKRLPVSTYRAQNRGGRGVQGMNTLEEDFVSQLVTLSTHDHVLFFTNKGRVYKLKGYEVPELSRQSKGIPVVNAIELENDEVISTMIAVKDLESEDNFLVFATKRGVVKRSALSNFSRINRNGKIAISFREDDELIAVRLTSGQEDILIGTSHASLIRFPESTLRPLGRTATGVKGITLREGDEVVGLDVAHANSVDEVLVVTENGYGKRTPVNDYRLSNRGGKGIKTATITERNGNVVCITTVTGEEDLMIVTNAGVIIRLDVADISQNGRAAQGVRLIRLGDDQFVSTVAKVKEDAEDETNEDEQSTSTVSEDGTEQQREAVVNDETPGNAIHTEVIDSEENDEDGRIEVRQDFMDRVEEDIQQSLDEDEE
T1 sequence (P0A0K8 whole entry): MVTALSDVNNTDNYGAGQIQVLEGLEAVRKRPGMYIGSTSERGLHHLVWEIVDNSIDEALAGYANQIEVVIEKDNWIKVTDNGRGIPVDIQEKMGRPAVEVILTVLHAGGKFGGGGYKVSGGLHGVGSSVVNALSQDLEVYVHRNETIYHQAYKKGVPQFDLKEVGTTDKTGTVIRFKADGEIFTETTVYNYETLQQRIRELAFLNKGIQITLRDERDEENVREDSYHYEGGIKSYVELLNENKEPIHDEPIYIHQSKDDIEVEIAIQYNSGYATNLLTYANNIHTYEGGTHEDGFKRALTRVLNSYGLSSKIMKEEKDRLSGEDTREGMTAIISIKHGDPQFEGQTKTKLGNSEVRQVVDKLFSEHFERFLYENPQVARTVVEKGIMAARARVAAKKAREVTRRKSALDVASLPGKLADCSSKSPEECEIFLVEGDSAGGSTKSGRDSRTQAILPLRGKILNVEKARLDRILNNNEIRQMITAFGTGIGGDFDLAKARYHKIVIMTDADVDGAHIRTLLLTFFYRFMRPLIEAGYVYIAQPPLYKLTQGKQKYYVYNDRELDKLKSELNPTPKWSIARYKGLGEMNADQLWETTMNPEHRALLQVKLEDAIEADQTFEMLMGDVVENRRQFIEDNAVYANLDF

As to `C#CCC[n+]1c(/C=C/c2ccc(-c3ccc(N(c4ccc(OCCC[N+](C)(C)C)cc4)c4ccc(OCCC[N+](C)(C)C)cc4)cc3)s2)sc2ccccc21.[Br-].[Br-].[Br-]` [TPA-1], in data set [1], the CC50 at 24 h was 260 ± 40 µM. In addition, in the data set with planktonic P. aeruginosa (30 min), the “planktonic P. aeruginosa eradicated” value is given as 99.96% ± 0.03% and the “planktonic P. aeruginosa log CFU/mL reduction” value is given as 3.4 ± 0.2 log CFU/mL. In the data set with planktonic P. aeruginosa (45 min), the “planktonic P. aeruginosa eradicated” value was greater than 99.99% and the “planktonic P. aeruginosa log CFU/mL reduction” value is recorded as greater than 5 log CFU/mL. Also, in the data set with S. aureus biofilm, the “S. aureus biofilm log CFU/mL reduction” value was found to be 1.18 ± 0.05 log CFU/mL and the “S. aureus in the biofilm eradicated” value was 92% ± 3%. Besides, in data set [2] (1 × MIC (3.125 μM)), the inhibition at 3.125 µM was greater than 90%. Besides, the inhibition at 6.25 µM in data set [2] (≥ 6.25 μM) is greater than 99.9%. The “concentration at which the supercoiled DNA band completely disappears” value at S. aureus DNA gyrase was 25 µM. Also, in the data set with planktonic S. aureus (30 min), the “planktonic S. aureus eradicated” value is 99.2% ± 0.7% and the “planktonic S. aureus log CFU/mL reduction” value stood at 2.2 ± 0.4 log CFU/mL. In the data set with planktonic S. aureus (45 min), the “planktonic S. aureus eradicated” value was greater than 99.99% and the “planktonic S. aureus log CFU/mL reduction” value is greater than 5 log CFU/mL. In the data set on P. aeruginosa biofilm, the “P. aeruginosa biofilm log CFU/mL reduction” value was determined as 2.6 ± 0.2 log CFU/mL and the “P. aeruginosa in the biofilm eradicated” value is given as 99.8% ± 0.1%.
